Results taken from US20050063956A1, “Method and device for attracting insects” (Colorado State University Research Foundation, priority 1998, published 2005).
Where “and” joins values, the source holds several entries; their conditions need not be identical. Identical values can stand only once. Entries after “also recorded” stand apart in the source; their conditions may differ.

Assays:
[1] = system: wireworm larvae; details: in vivo; cited from earlier work
[2] = system: western corn root worm larvae; assay: Glass bead Y-tube choice-test bioassay (Example 18); type: in vivo, Diabrotica virgifera virgifera LeConte; details: for CO2 selective response, choice between two concentrations: base 1, 2, 5, 10, 20 mmol/mol
Description: Bioassay Apparatus. The choice-test bioassay apparatus (FIG. 34) was constructed from a glass Y-tube filled with glass beads to simulate the thigmotactic cues of the soil environment that are ordinarily encountered by western corn root worm larvae. The glass Y-tube was fabricated by a local glassblower (9.5 mm inside diameter, 60° angles, with each branch 3 cm long), and clamped to a ring stand with 2 branches of the “Y” facing down. A glass connection tube (4 cm long, 0.5 cm diameter) with a piece of vinyl screen (2.5-mm mesh) held over 1 end by a 0.5-cm section of Teflon tubing (6 mm inside diameter) was inserted snugly into the end of each of the arms of the Y-tube to support the glass beads. Glass beads (3 mm, cat. no. 11-312A, Fisher Scientific, Pittsburgh, Pa.) were poured into the top of the Y-tube, filling the entire apparatus to within 0.5 cm of the top (250 beads). A 5-mm NMR tube cap (cat. no. 100-0050, Drummond Scientific, Broomall, Pa.) was fitted into the other end of each glass connection tube, with a hole to allow snug insertion of a 20-cm piece of slender Teflon tubing (0.8 mm inside diameter) for introduction of volatile chemical cues into each arm of the bioassay apparatus. Two techniques were used to introduce candidate chemical cues into the 2 arms of the apparatus: 1 used shell vials as chemical sources, and the other used syringes as chemical sources.
Shell Vial Sources. In this 1st approach (FIG. 34), two 35-ml polyethylene syringes (cat. no. 106-0490, Sherwood Medical, St. Louis, Mo.) were filled with ambient air, and the air was pumped through shell vials containing candidate chemical cues. Glass shell vials (4 ml) with polyethylene caps were used (cat. no. B7785-1, Baxter Healthcare, McGaw Park, Ill.). A 35-ml syringe was snugly connected with slender Teflon tubing (20 cm) to a hole in the cap of the shell vial. A 2nd piece of slender Teflon tubing was used to connect the shell vial to 1 arm of the bioassay apparatus. The 2 syringes used for each bioassay were connected to a syringe pump (Sage Model 355, Fisher Scientific, Pittsburgh, Pa.) that provided an airflow through each shell vial containing a candidate chemical treatment, and subsequently into a choice arm of the bioassay apparatus. For the shell vial sources of candidate chemical compounds, the shell vial containing either a carbonated water dilution or a corn seed or cut corn roots was left open for 5 min to allow the gas concentrations to reach equilibrium. The vial was capped, and the syringe pump was started, providing an airflow of 1.0 ml/min from each syringe.
Syringe Sources. In this 2nd approach (FIG. 39), 35-ml polyethylene syringes were filled directly with candidate chemical cues (such as the headspace from a container of germinating corn, a sample of CO2 mixed with air, or the headspace from a bottle of carbonated water). Each of the 2 syringes was connected with slender Teflon tubing to 1 arm of the bioassay apparatus. The 2 syringes used for each bioassay were connected to a syringe pump that was adjusted to provide an airflow of 1 ml/min from each syringe.
Bioassay Procedure. For bioassays, 20 newly hatched 1st instars (0-12 hours old) were collected from tubs containing eggs in soil (by using a camel's hair brush) and placed in a covered 5-mm NMR cap with 2 holes (1 mm diameter) drilled in the bottom (FIGS. 34 and 39). These holes were temporarily plugged with a piece of wire bent into a U-shape. The open end of the NMR cap was sealed with a small square of cellophane held in place with a plastic tube (a piece of soda straw) that fit snugly over the open end. The Y-tube apparatus was assembled and filled with glass beads and the appropriate treatment and control sources (shell vials or syringes) were connected to the arms of the Y-tube. The syringe pump was set to provide a flow of 1 ml/min and turned on. […]

time to recover normal movement ([2]; after removal from apparatus, 300 or 900 mmol/mol CO2): 5 to 10 min
SMILES: O=C=O [CO2, carbon dioxide]
smallest CO2 difference responded to [1]: 0.02%
CO2 selective response, equal amounts of CO2 on both sides ([2]; 1, 2, 5, 10, or 20 mmol/mol both sides): no significant differences in attraction were observed
larval attraction at high CO2 ([2]; 300 or 900 mmol/mol CO2): not attracted
toxic symptoms of larvae at high CO2 ([2]; 300 or 900 mmol/mol CO2): exhibited toxic symptoms; also recorded: lethargic when removed from the apparatus
smallest difference between the 2 choices still attractive ([2]; base 1 mmol/mol): 0.125 mmol/mol
CO2 selective response, choice between two concentrations ([2]; difference 0.125 mmol/mol): significantly greater attraction was observed to 1.125 mmol/mol than to 1 mmol/mol; also recorded: no difference in attraction was observed in any of the tests at higher concentrations
CO2 selective response, choice between two concentrations ([2]; difference 0.25 mmol/mol): more attracted to the higher CO2 concentration for 1 versus 1.25 mmol/mol (FIG. 48), and for 2 versus 2.25 mmol/mol; also recorded: no difference in attraction was observed for 5 versus 5.25 mmol/mol (FIG. 50), for 10 versus 10.25 (FIG. 51) mmol/mol, or for 20 versus 20.25 mmol/mol
CO2 selective response, choice between two concentrations ([2]; difference 0.50 mmol/mol): no difference in attraction was observed for 20 versus 20.50 mmol/mol
excess of CO2 concentration over control at which larvae were first attracted ([2]; selective response experiments): 12.5%
highest concentration of CO2 to which the larvae were attracted ([2]; versus ambient air control): 100 mmol/mol and 85.60±1.20 mmol/mol
lowest concentration of CO2 attractive to the larvae ([2]; versus ambient air control (0.91-0.99 mmol/mol)): 1.125±0.04 mmol/mol
